Experimental findings from patent US8933103B2, “Pyridone derivatives” (Daiichi Sankyo Company, Limited, priority 2012, dated 2015) are described below.

Experiment [1] addresses T1, AXL (fusion protein of amino acids 464-885 of the intracellular domain of human AXL with glutathione transferase) (Homo sapiens, UniProt P30530).
T1 sequence (P30530 464-885 isoform P30530-2): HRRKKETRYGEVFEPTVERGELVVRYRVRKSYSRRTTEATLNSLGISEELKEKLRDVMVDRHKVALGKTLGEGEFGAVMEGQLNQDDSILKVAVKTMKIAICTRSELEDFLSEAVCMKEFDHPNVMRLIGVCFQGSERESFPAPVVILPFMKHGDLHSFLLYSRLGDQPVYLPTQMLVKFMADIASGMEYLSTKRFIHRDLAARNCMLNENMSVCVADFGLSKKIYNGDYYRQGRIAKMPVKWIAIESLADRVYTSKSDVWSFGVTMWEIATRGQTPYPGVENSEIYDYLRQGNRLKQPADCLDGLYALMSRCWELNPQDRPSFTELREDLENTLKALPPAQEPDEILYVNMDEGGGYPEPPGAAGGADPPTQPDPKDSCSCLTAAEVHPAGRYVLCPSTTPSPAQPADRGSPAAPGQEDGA
The experiment in a line: Cell-Free Axl Kinase Inhibitory Activity.
Experimental: Next, the test compound was diluted with DMSO, and 1 μl of this diluted solution was added to each well.
Five microliters of this solution were added to each well to initiate a kinase reaction. The plate was incubated at 28° C. for 1.5 hours, and 40 μl of a termination buffer (100 mM HEPES (pH 7.4), 0.015% Brij-35, 40 mM EDTA, 0.1% Coating Reagent 3) was added to each well to terminate the reaction.
The substrate peptide and the phosphorylated peptide in the reaction solution were separated and quantified by EZ Reader II (Caliper Life Sciences).
IC50 was determined from inhibition data for 12 test compound concentrations by nonlinear regression (four-parameter logistic regression) using the following formula.

For experiment [2], the target named is T2, phosphorylated Axl (pAxl Y702) in NCI-H1299 cells (Homo sapiens, UniProt P30530).
T2 construct: endogenous in cells; host or cells: NCI-H1299
T2 sequence (P30530 26-894): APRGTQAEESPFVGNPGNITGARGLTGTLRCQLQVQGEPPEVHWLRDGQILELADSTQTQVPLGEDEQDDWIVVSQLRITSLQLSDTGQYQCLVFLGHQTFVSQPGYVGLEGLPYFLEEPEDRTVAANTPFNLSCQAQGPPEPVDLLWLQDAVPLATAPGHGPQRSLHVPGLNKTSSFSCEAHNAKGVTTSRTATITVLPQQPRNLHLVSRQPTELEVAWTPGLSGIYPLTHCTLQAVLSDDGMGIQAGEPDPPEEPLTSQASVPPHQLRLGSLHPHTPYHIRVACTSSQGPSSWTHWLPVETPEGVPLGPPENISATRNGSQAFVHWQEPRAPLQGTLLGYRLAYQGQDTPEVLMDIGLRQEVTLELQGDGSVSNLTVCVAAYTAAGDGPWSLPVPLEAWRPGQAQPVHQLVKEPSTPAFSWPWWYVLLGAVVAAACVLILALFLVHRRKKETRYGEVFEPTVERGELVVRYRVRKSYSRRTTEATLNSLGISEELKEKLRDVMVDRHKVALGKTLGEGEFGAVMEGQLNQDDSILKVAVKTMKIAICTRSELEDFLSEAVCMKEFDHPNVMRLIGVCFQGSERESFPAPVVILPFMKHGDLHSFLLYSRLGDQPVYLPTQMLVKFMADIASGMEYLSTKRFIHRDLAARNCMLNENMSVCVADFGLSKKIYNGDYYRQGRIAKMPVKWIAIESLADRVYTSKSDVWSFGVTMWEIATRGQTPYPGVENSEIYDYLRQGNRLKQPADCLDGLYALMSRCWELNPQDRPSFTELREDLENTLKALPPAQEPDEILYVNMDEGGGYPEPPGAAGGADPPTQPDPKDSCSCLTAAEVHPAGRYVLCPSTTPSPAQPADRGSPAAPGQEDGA
The experiment in a line: Intracellular Axl Phosphorylation Inhibitory Activity (pAxl, NCI-H1299 cells). Type of experiment: cell-based. Conditions: 1 h compound incubation, GAS6 stimulation 10 minutes, pAxl (Y702) level. The protocol:
A phosphorylated Axl (hereinafter pAxl) inhibitory test was performed using the human non-small-cell lung cancer-derived cell strain NCI-H1299.
On the following day, the medium was removed, 100 μl of fresh medium were added, and the cells were cultured at 37° C. in the presence of 5% CO2 for one day.
The test compound was dissolved in DMSO and diluted with medium to prepare a sample solution (DMSO concentration: 2%). Twenty-five microliters of medium or sample-added medium was added to each well (DMSO concentration: 0.4%), and the plate was incubated at 37° C. in the presence of 5% CO2 for one hour.
After stirring, the plate was incubated at 37° C. in the presence of 5% CO2 for 10 minutes.
The supernatant was discarded, and 0.1 ml of a 37% formalin solution diluted to 4% with phosphate buffer (PBS) (hereinafter “4% formalin solution”) was added to each well. The plate was allowed to stand at room temperature for 10 minutes.
Next, the 4% formalin solution was discarded, and 0.2 ml of a solution of Triton X-100 diluted to 0.1% with PBS (hereinafter “wash buffer”) was added. The wash buffer was discarded using a decanter, and excess moisture in the plate was removed on a paper towel.
Subsequently, […] NaN3 and H2O2 were added to the wash buffer at 0.1% (hereinafter “quenching buffer”), and 0.1 ml of the quenching buffer was added to each well. The plate was allowed to stand at room temperature for 15 minutes.
The quenching buffer was discarded, and 0.2 ml of wash buffer was added. The wash buffer was discarded using a decanter, and excess moisture in the plate was removed on a paper towel.
Skim milk (Nacalai Tesque) was added to the wash buffer at a final concentration of 5% (hereinafter “blocking buffer”), and 0.25 ml of the blocking buffer was added to each well. The plate was allowed to stand at room temperature for one hour.
After light stirring, the plate was incubated for 20 minutes. Luminescence was then measured by ARVO sx (PerkinElmer), and the pAxl (Y702) level was measured.
pAxl Inhibitory activity was determined by the following formula. Inhibition %=100−(A−B)×100/(T−B)
A: Measurement of the test compound
T: Luminescence value of the reaction solution with a compound not added

On to `COc1ccnc(N)c1-c1ccc(NC(=O)c2cn(Cc3ccc(F)cc3)cc(C(=O)N3CCCC3)c2=O)cc1` [Example 84, N-[4-(2-Amino-4-methoxypyridin-3-yl)phenyl]-1-(4-fluorobenzyl)-4-oxo-5-(pyrrolidin-1-ylcarbonyl)-1,4-dihydropyridine-3-carboxamide], for which the figures for the IC50 in experiment [1] and in experiment [2] were 10 to 20 nM and 100 to 500 nM, respectively.
With `COc1ccc(-c2cnc(N)c(-c3ccc(NC(=O)c4cn(CCOC5CCCCO5)cc(-c5ccc(F)cc5)c4=O)cc3)c2)cc1OC` (racemic) [Example 6, N-{4-[2-Amino-5-(3,4-dimethoxyphenyl)pyridin-3-yl]phenyl}-5-(4-fluorophenyl)-4-oxo-1-[2-(tetrahydro-2H-pyran-2-yloxy)ethyl]-1,4-dihydropyridine-3-carboxamide], the IC50 fell in the range of 1 to 10 nM in experiment [1] and 100 to 500 nM in experiment [2].
On to `COc1ccc(-c2cnc(N)c(-c3ccc(NC(=O)c4cn(C[C@H]5COCCO5)cc(-c5ccc(F)cc5)c4=O)cc3)c2)cc1OC` [Example 14, N-{4-[2-Amino-5-(3,4-dimethoxyphenyl)pyridin-3-yl]phenyl}-1-[(2S)-1,4-dioxan-2-ylmethyl]-5-(4-fluorophenyl)-4-oxo-1,4-dihydropyridine-3-carboxamide], for which the IC50 in experiment [1] lay within 1 to 10 nM; in experiment [2] it was 50 to 100 nM.
Regarding `COc1cccc(-c2cnc(N)c(-c3ccc(NC(=O)c4cn(CC(F)(F)F)cc(-c5ccc(F)cc5)c4=O)cc3)c2)c1` [Example 33, N-{4-[2-Amino-5-(3-methoxyphenyl)pyridin-3-yl]phenyl}-5-(4-fluorophenyl)-4-oxo-1-(2,2,2-trifluoroethyl)-1,4-dihydropyridine-3-carboxamide], the IC50 was 1 to 10 nM in experiment [1] and 50 to 100 nM in experiment [2].

As usually defined, the IC50 is the concentration needed to halve the response being measured. Low readings indicate greater potency, high ones weaker potency.
